Columns and labels:
[1] = target: Integrin alpha-4/beta-7 (Homo sapiens) (UniProt P13612+P26010); assay: Selectivity for alpha4-beta7 to that of alpha4-beta1; format: protein-complex assay
Integrin alpha-4/beta-1 [2] = target: T1, Integrin alpha-4/beta-1 (Homo sapiens, UniProt P05556+P13612); assay: Inhibition of alpha4-beta1 (very late) antigen binding with VCAM-1 immunoglobulin plus 5% human plasma; format: cell-free
Integrin alpha-4/beta-7 = target: T2, Integrin alpha-4/beta-7 (Homo sapiens, UniProt P13612+P26010); assay: Inhibition of alpha4-beta7 antigen with MAdCAM immunoglobulin; format: protein-complex assay
T2 sequence (P13612 whole entry): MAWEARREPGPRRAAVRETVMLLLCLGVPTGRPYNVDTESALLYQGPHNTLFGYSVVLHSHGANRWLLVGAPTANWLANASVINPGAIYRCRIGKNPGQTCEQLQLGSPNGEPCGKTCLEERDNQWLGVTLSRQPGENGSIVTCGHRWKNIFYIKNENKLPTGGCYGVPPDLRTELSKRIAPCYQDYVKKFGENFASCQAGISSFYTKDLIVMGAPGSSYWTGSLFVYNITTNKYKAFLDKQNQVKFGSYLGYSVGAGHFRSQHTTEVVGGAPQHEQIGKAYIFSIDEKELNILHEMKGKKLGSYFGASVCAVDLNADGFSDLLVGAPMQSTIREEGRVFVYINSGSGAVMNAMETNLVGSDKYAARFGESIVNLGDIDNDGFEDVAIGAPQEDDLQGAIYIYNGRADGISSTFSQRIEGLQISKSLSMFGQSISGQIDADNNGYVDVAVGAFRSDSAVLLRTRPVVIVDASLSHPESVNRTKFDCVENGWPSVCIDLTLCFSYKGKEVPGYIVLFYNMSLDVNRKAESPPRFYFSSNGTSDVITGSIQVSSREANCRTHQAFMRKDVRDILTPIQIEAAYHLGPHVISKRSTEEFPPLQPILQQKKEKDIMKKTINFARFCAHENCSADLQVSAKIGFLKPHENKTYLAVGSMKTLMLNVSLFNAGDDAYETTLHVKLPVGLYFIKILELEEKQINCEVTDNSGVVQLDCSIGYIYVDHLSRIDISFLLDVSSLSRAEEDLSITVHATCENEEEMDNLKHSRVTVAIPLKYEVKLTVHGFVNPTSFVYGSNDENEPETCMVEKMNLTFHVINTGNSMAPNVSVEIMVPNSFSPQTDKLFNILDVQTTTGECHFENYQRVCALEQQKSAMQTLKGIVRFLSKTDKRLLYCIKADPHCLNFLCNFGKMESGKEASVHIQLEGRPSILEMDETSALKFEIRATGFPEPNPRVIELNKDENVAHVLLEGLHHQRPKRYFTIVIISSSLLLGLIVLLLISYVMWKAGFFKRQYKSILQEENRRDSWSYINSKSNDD
T2 sequence (P26010 whole entry): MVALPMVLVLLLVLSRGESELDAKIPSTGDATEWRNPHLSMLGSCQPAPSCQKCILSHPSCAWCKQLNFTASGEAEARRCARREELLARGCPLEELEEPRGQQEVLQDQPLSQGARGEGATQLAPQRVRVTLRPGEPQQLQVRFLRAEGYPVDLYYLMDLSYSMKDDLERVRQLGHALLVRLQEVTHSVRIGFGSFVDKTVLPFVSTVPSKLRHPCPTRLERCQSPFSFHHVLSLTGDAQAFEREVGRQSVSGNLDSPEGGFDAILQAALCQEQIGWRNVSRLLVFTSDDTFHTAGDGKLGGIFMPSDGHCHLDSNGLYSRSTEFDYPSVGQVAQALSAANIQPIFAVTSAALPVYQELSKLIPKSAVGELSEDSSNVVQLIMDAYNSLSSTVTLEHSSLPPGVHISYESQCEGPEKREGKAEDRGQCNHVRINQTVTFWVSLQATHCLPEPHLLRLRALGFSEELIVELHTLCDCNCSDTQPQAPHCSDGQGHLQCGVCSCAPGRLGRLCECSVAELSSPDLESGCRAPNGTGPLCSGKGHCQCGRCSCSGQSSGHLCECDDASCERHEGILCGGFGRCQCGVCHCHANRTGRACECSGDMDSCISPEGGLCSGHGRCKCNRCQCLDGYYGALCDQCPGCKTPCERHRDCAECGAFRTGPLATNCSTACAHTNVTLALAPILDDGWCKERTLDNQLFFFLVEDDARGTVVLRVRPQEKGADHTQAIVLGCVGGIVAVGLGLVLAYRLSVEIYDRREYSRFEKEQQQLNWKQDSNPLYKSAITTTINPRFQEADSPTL

Integrin alpha-4/beta-1 [3] = target: T1, Integrin alpha-4/beta-1; assay: Inhibition of alpha4-beta1 (very late) antigen binding with VCAM-1 immunoglobulin; format: protein-complex assay

T1 sequence (P05556 whole entry, one chain of several): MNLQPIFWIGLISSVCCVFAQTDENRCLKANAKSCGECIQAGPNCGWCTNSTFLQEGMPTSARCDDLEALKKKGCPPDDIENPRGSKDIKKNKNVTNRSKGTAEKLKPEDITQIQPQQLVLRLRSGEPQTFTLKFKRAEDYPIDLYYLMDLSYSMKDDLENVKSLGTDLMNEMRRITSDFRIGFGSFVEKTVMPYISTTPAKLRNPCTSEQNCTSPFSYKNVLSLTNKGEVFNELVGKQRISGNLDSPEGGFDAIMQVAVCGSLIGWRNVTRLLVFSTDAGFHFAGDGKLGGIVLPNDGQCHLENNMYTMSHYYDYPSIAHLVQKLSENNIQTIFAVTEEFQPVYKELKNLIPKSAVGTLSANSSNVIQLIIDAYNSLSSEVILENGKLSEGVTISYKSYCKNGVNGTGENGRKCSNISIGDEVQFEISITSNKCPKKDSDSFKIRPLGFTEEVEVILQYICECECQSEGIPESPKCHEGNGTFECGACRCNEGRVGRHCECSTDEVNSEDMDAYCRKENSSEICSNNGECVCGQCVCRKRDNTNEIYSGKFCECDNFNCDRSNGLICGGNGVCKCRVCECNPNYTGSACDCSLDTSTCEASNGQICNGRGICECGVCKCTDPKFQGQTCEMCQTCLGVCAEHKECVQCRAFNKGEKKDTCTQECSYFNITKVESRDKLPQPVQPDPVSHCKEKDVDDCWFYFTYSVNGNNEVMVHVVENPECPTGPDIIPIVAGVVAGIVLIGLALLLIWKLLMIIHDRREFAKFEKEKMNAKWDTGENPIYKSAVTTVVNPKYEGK

SMILES	Ratio [1]	IC50 (Integrin alpha-4/beta-1 [2]) [nM]	IC50 (Integrin alpha-4/beta-7) [nM]	IC50 (Integrin alpha-4/beta-1 [3]) [nM]
COc1ccccc1-c1ccc(C[C@H](NC(=O)[C@@]2(c3cc(C(F)(F)F)cc(C(F)(F)F)c3)CCCO2)C(=O)O)cc1	108	1100	499	4.62
COc1ccccc1-c1ccc(C[C@H](NC(=O)[C@@]2(C(=O)N3CCOCC3)CCCO2)C(=O)O)cc1	16	1	8.49	0.54
COc1cccc(OC)c1-c1ccc(C[C@H](NC(=O)[C@]2(C)OC(C)CC2N)C(=O)O)cc1 (some centres not stated)	57		149	2.6
COc1cccc(OC)c1-c1ccc(C[C@H](NC(=O)[C@@]2(CCN(C)C)CCCO2)C(=O)O)cc1	5	19.5	80	15.5
COc1cccc(OC)c1-c1ccc(C[C@H](NC(=O)[C@@]2(c3cccc(N)c3)CCCO2)C(=O)O)cc1	29	5.63	26.6	0.92
COc1cccc(OC)c1-c1ccc(C[C@H](NC(=O)[C@]2(C)OC(C)CC2=O)C(=O)O)cc1 (some centres not stated)	35	1.32	24.5	0.7
COc1ccccc1-c1ccc(C[C@H](NC(=O)[C@@]2(C)CCCO2)C(=O)O)cc1	12	60.6	45.3	3.9
COCCCC[C@]1(C(=O)N[C@@H](Cc2ccc(-c3c(OC)cccc3OC)cc2)C(=O)O)CCCO1	35	1.27	22	0.62
CCOC(=O)[C@]1(C(=O)N[C@@H](Cc2ccc(-c3ccccc3OC)cc2)C(=O)O)CCCO1	13	19	51.1	4.06
COc1cccc(OC)c1-c1ccc(C[C@H](NC(=O)[C@@]2(CCO)CCCO2)C(=O)O)cc1	10	7.59	16.3	1.56
COc1ccccc1-c1ccc(C[C@H](NC(=O)[C@@]2(C(=O)N3CCCC3)CCCO2)C(=O)O)cc1	17	4.42	22.9	1.33
CCCC[C@]1(C(=O)N[C@@H](Cc2ccc(-c3c(OC)cccc3OC)cc2)C(=O)O)CCCO1	29	1.46	13.8	0.48
COc1ccccc1-c1ccc(C[C@H](NC(=O)[C@@]2(c3ccc(C(F)(F)F)cc3)CCCO2)C(=O)O)cc1	95	120	504	5.31
COc1ccccc1-c1ccc(C[C@H](NC(=O)[C@@]2(c3ccc(Cl)cc3)CCCO2)C(=O)O)cc1	67	46	275	4.09
COc1cccc(OC)c1-c1ccc(C[C@H](NC(=O)[C@@]2(C(C)C)CCCO2)C(=O)O)cc1	9	7.46	6.1	0.7
COc1cccc(OC)c1-c1ccc(C[C@H](NC(=O)[C@@]2(c3ncc(C)s3)CCCO2)C(=O)O)cc1	47		14.5	0.31
COc1cc(OC)cc([C@]2(C(=O)N[C@@H](Cc3ccc(-c4c(OC)cccc4OC)cc3)C(=O)O)CCCO2)c1		5.77		1.48
COc1cccc(OC)c1-c1ccc(C[C@H](NC(=O)[C@@]2(CCCO)CCCO2)C(=O)O)cc1	17	3.36	35.3	2.12
COc1cccc(OC)c1-c1ccc(C[C@H](NC(=O)[C@@]2(CCCN(C)C)CCCO2)C(=O)O)cc1	7		67	9.18
COc1ccccc1-c1ccc(C[C@H](NC(=O)[C@@]2(C(=O)N3CCN(C)CC3)CCCO2)C(=O)O)cc1	39	1	23.2	0.59
COc1ccccc1-c1ccc(C[C@H](NC(=O)[C@@]2(c3ccc(F)cc3)CCCO2)C(=O)O)cc1	11	48	45.7	4.3
COc1cccc(OC)c1-c1ccc(C[C@H](NC(=O)[C@@]2(c3cccc([N+](=O)[O-])c3)CCCO2)C(=O)O)cc1	85	0.95	19.6	0.23
COc1ccccc1-c1ccc(C[C@H](NC(=O)[C@@]2(c3cccc(C(F)(F)F)c3)CCCO2)C(=O)O)cc1	70	290	327	4.65
COc1ccccc1-c1ccc(C[C@H](NC(=O)[C@@]2(c3ccccc3)CCCO2)C(=O)O)cc1	26		56.4	2.2
COc1cccc(OC)c1-c1ccc(C[C@H](NC(=O)[C@@]2(C(=O)C(C)C)CCCO2)C(=O)O)cc1	22		11.2	0.67

Continued by falling IC50 (Integrin alpha-4/beta-1 [3]), values first:

Ratio [1]	IC50 (Integrin alpha-4/beta-1 [2]) [nM]	IC50 (Integrin alpha-4/beta-7) [nM]	IC50 (Integrin alpha-4/beta-1 [3]) [nM]	SMILES
1	870	245	255	COc1cccc(OC)c1-c1ccc(C[C@H](NC(=O)[C@@]2(CCCCO)CCCO2)C(=O)O)cc1
14	22.9	226	16.3	COc1cccc(OC)c1-c1ccc(C[C@H](NC(=O)[C@@]2(CCCCN(C)C)CCCO2)C(=O)O)cc1
60	343	374	6.18	COc1ccccc1-c1ccc(C[C@H](NC(=O)[C@@]2(c3ccc(C)c(C)c3)CCCO2)C(=O)O)cc1
64	53	232	3.62	COc1ccccc1-c1ccc(C[C@H](NC(=O)[C@@]2(c3ccc(Br)cc3)CCCO2)C(=O)O)cc1
225	14.9	733	3.4	COc1ccc(CNC2CC(C)O[C@@]2(C)C(=O)N[C@@H](Cc2ccc(-c3c(OC)cccc3OC)cc2)C(=O)O)cc1 (some centres not stated)
55	29	99.5	1.8	COc1ccccc1-c1ccc(C[C@H](NC(=O)[C@@]2(c3ccc(C(C)(C)C)cc3)CCCO2)C(=O)O)cc1
19	4.02	22.3	1.15	COc1cccc(OC)c1-c1ccc(C[C@H](NC(=O)[C@@]2(CC(C)C)CCCO2)C(=O)O)cc1
40	1.99	16.1	0.7	COCC[C@]1(C(=O)N[C@@H](Cc2ccc(-c3c(OC)cccc3OC)cc2)C(=O)O)CCCO1
95	4.75	52.2	0.55	COc1cccc(OC)c1-c1ccc(C[C@H](NC(=O)[C@@]2(c3ccc(Cl)cc3)CCCO2)C(=O)O)cc1
97	2.41	45.6	0.47	COc1cccc(OC)c1-c1ccc(C[C@H](NC(=O)[C@@]2(c3ccc(Cl)c([N+](=O)[O-])c3)CCCO2)C(=O)O)cc1
897	2.4	377	0.42	COc1cccc(OC)c1-c1ccc(C[C@H](NC(=O)[C@@]2(c3nc4ccccc4o3)CCCO2)C(=O)O)cc1
